From patent US4648996A, “Phenyl substituted-2,4,6,8-nonatetraenoic acid” (Hoffmann-La Roche Inc., priority 1985, dated 1987)
Like-named read-outs stand apart in the source and are kept apart here.

What was measured:
[1] = test system: adjuvant arthritis in rats; assay: Chronic adjuvant arthritis test (Table I); type: in vivo, male Charles River Lewis rats; conditions: for change in vivo at 75 µmol/kg / change in vivo at 96 µmol/kg / change in vivo at 76 µmol/kg / change in vivo at 60 µmol/kg: Rattus norvegicus, 552 h, day 23; for Body Weight Gain: vehicle 28-31
Procedure: That the compounds of this invention are effective anti-arthritic agents can be seen from the results obtained when these compounds are administered to rats in accordance with the chronic adjuvant arthritis test system disclosed in Billingham and Davies "Handbook of Experimental Pharmacology" (editors J. R. Vane and S. H. Ferreira) Vol. 50/II, pg. 108-144, Springer-Verlag, Berlin, 1979).
In this procedure, adjuvant arthritis was induced by the subplantar injection on day 0 of 0.05 ml of adjuvant [a suspension of heat-killed, dessicated Mycobacterium butyricum, 0.5% (w/v), in heavy mineral oil containing 0.2% digitonin] into the right hind paw of male Charles River Lewis rats (120-140 g) that were housed individually and given food and water ad lib. Paw volumes (both hind paws) were measured immediately after injection of the adjuvant. Paw Volumes were also measured, to follow the development of inflammation-induced swelling in the arthritic paws, at intervals of 3 to 7 days by immersion of the paw to the level of the lateral malleolus in a mercury plethysmograph.
Drugs were administered once a day (starting on the day of adjuvant injection) by […] using Tween 80 (polyoxyethylene sorbitan mono-oleate) at a dose of 0.25 ml/100 g body weight as the vehicle. Arthritic control rats received daily doses of the vehicle only. On day 23-25, the rats were sacrificed, plasma collected and plasma fibrinogen levels determined (ammonium sulfate turbidimetric method) as described by Exner et al., Amer. J. Clin Path, 71:521-527 (1979). Anti-inflammatory activity of the test drugs were determined by comparing the extent of paw swelling (paw volume on a particular day, i.e. day four to day twenty-five, minus the paw volume on day 0) in drug-treated arthritic rats with the extent of paw swelling in the vehicle-treated arthritic rats. Drug induced decreases in the level of plasma fibrinogen, an acute phase protein that is elevated in the plasma of rats with adjuvant-induced arthritis, were also used to quantitate the anti-inflammatory activity.

[2] = test system: impregnated sponge granuloma in the rat; assay: Impregnated sponge granuloma test in the rat; type: in vivo, AHH/R female rats (PVG derived)
Procedure: AHH/R female rats (PVG derived) with an initial weight range of 120-140 g. were used.
Sponge preparation. Pellets (6.5 mm diameter) were punched from cellulose sponge cloth ("Wettex") and 0.1 ml. of a suspension containing 0.5 mg.ml^-1 of heat killed M. tuberculosis (human strains C, DT and PN) in sterile saline was applied to each pellet. The pellets were dried, weighed and autoclaved.
Rats were randomly divided into groups of five and daily dosing with test compounds was commenced. After the fifth dose the rats were anaesthetised with Sagatal (45 mg.kg^-1 i.p.) the backs were shaved and two pellets were implanted subcutaneously (one each side) into each rat through a small dorsal midline incision. The incision was closed and the rats allowed to recover from the anaesthetic.
Seven days after implantation the rats were killed and the pellets were removed, dissected free of extraneous tissue and weighed. Each pellet was then placed in a 4 ml aliquot of distilled water, chopped with fine scissors and sonicated. After centrifugation the Na^+ and K^+ content of the supernatant was determined by flame photometry. In addition the adrenal and thumus glands from each rat were dissected out and weighed and the lower hind limbs were removed for measurement of tibial bone breaking strain. Body weights were also recorded throughout the test period.
The mean ± SE for each of the parameters was calculated and differences from the control values were determined by Student's t test (2-tailed). Percentage reductions of granuloma weight, Na^+ and K^+ content and percentage changes of adrenal and thymus, weight and tibial breaking strain were determined.

[3] = test system: adjuvant arthritis in the rat; assay: Developing adjuvant arthritis in the rat; type: in vivo, AHH/R Female rats (PVG derived); conditions: 15 mg.kg^-1 p.o.
Procedure: AHH/R Female rats (PVG derived with an initial weight range of 110 to 140 g. were used.
Adjuvant for injection. An homogenized suspension of heat killed M tuberculosis (Human strains C, DT and PN), 5 mg.Ml^-1 in liquid paraffin was prepared.
Rats were randomly split into groups of five and adjuvant arthritis was induced by the sub-plantar injection of 0.1 ml of adjuvant suspension into the right hind paw of each rat. Test compounds were administered by intubation each morning commencing the day of adjuvant injection. Two groups of control rats were dosed with the vehicle as was a group of three normal rats included for comparative purposes. Dosing was carried out daily until the end of the test on day 15 except for the first weekend (days 5 & 6). Treatment groups are shown in Table III and include etretinate as standard retinoid.
Measurements of right hind paw volume were made initially and on days 2 and 4 after and adjufant injection (primary phase). Right and left hind paw volume were then measured, on day 8 and every two or three days until the end of the experiment on day 15 (secondary phase). At this time the mobility of each ankle joint and the incidence and severity of secondary lesions on nose, ears, forepaws, left hind paw and tail were also assessed in terms of degrees of flexion possible and by using an arbitrary scoring system, respectively.
The time course curves for the injected paws were integrated from days 0 to 4 to reflect primary swelling and from days 8 to 15 (secondary swelling). The secondary swelling in the non-injected paw was integrated similarly from days 8 to 15. Calculations were carried out using a specific computer program which computed mean ± se for each integrated area. The significance of differences from controls was determined by Student's t test (2 tailed) and percentage reductions from control areas were calculated. Percentage improvements in joint mobility and percentage reductions in lesion score were also determined. In the latter case the Wilcoxon rank sum test (2 tailed) was used to express the difference from the control score using raw data. Mean body weight change in each group was recorded.

[4] = test system: MBSA delayed hypersensitivity in mice; assay: Delayed hypersensitivity to methylated bovine serum albumin (MBSA); type: in vivo, Male and female MFI mice substrain E33; conditions: 10 mg.kg^-1 oral
Procedure: Male and female MFI mice substrain E33. Initial weight approximately 25 gm.
Dosing with vehicle and retinoid commenced on day 0 and finished on day 9.
Each group consisted of 4 male and 6 female mice (separately caged). Drugs were dosed orally at a dose volume of 10 ml.kg^-1 (10 doses).

[5] = test system: established adjuvant arthritis in rats; assay: Effect on the course of established adjuvant arthritis; type: in vivo, Male Lewis rats from Charles River; conditions: 1 mg/kg, 7 days
Procedure: Male Lewis rats from Charles River were used for these experiments.
Heat-killed, dessicated Mycobacteriam butyricum.
Adjuvant arthritis was induced by the injection of 0.1 ml of adjuvant [a suspension of heat-killed, dessicated Mycobacterium butyricum, 0.5% CW/V) in heavy mineral oil containing 0.2% digitonin] into the base of the tail. The arthritis was allowed to develop for 21 days and then the volume of both hind paws were measured using a mercury plethysmograph. The rats were divided into groups of 8 with equal mean paw volumes and then the rats were treated with Compound A, indomethacin (as a control drug), or vehicle for 7 days at the end of the treatment period, the volumes of both hind paws were again measured to assess antiinflammatory effects. Body weight changes were also followed and, at the end of the experiment, plasma was collected for determination of plasma fibrinogen (Exner et. al., Amer. J. Clin. Path, 71: 521-527).
^b Drugs were administered once a day for 7 days by intubation
^c Change in paw volume/body weight equals paw volume body weight on […]

[6] = oral 75 μMol/Kg, read-out: % Reduction in Paw Volume, Left
[7] = oral 75 μMol/Kg, read-out: % Reduction in Paw Volume, Right

CCCCCCCCCOc1ccc(OC)cc1/C=C/C(C)=C/C=C/C(C)=C/C(=O)O
change in vivo at 75 µmol/kg [1, 6]: -24% | change in vivo at 75 µmol/kg [1, 7]: -27% | Plasma fibrinogen % change (reduction) ([1]; oral 75 μMol/Kg): -21% | Body Weight Gain ([1]; oral 75 μMol/Kg): +27 g

CCCCCCCCNc1ccccc1/C=C/C(C)=C/C=C/C(C)=C/C(=O)OCC
change in vivo at 75 µmol/kg [1, 6]: -53% | change in vivo at 75 µmol/kg [1, 7]: -53% | Body Weight Gain ([1]; oral 75 μMol/Kg): +24 g

CCCCCCCCCOc1cccc(Cl)c1/C=C/C(C)=C/C=C/C(C)=C/C(=O)O
change in vivo at 75 µmol/kg [1, 6]: -32% | change in vivo at 75 µmol/kg [1, 7]: -29% | Body Weight Gain ([1]; oral 75 μMol/Kg): +35 g

CC(/C=C/c1ccccc1OCCCCCCCCO)=C\C=C\C(C)=C\C(=O)O
change in vivo at 96 µmol/kg ([1]; oral 96 μMol/Kg, read-out: % Reduction in Paw Volume, Left): -49% | change in vivo at 96 µmol/kg ([1]; oral 96 μMol/Kg, read-out: % Reduction in Paw Volume, Right): -37% | Plasma fibrinogen % change (reduction) ([1]; oral 96 μMol/Kg): -35% | Body Weight Gain ([1]; oral 96 μMol/Kg): +27 g

CCCCCCCCCOc1cccc(F)c1/C=C/C(C)=C/C=C/C(C)=C/C(=O)O
change in vivo at 75 µmol/kg [1, 6]: -68% | change in vivo at 75 µmol/kg [1, 7]: -56% | Plasma fibrinogen % change (reduction) ([1]; oral 75 μMol/Kg): -51% | Body Weight Gain ([1]; oral 75 μMol/Kg): +46 g

C[C@@H]1C[C@H]2[C@@H]3CCC4=CC(=O)C=C[C@]4(C)[C@@]3(F)[C@@H](O)C[C@]2(C)[C@@]1(O)C(=O)CO [Dexamethasone]
% reduction of granuloma K+ ([2]; 0.5 mg.kg^-1 sc): 75.2% | % reduction of granuloma Na+ ([2]; 0.5 mg.kg^-1 sc): 51.2% | % reduction of granuloma Wet weight ([2]; 0.5 mg.kg^-1 sc): 65.5%

CCOC(=O)/C=C(C)/C=C/C=C(C)/C=C/c1c(C)cc(OC)c(C)c1C [Etretinate, reference compound]
% change in adrenal weight ([2]; 15 mg.kg^-1 p.o.): +22.9% | % change in thymus weight ([2]; 15 mg.kg^-1 p.o.): +15.2% | % change in tibial breaking strains ([2]; 15 mg.kg^-1 p.o.): -4.6% | % reduction of granuloma K+ ([2]; 15 mg.kg^-1 p.o.): -3.9% | % reduction of granuloma Na+ ([2]; 15 mg.kg^-1 p.o.): 5.9% | % reduction of granuloma Wet weight ([2]; 15 mg.kg^-1 p.o.): 2.7% | Body Weight change ([2]; 15 mg.kg^-1 p.o.): +13.3 ± 2.6 g | rats that died under anaesthesia ([2]; 15 mg.kg^-1 p.o., 2 control rats also died): 1 rat | Body Weight Change Days 0-15 [3]: +1.0 g | Body Weight Change Days 8-15 [3]: -5.0 g | Joint Mobility (% INC) ([3]; day 15): 50% | Lesion Score (% RDN) ([3]; day 15): 56% | % reduction of paw swelling, Primary (right) ([3]; days 0-4): 9% | % reduction of paw swelling, Secondary (left) ([3]; days 8-15): 67% | % reduction of paw swelling, Secondary (right) ([3]; days 8-15): 30% | % increase paw volume ([4]; 10 doses): 59 ± 9% | % reduction (cf. arachis oil control) ([4]; 10 doses): 46% | Mean body weight change ([4]; female (F)): -2.0 g | Mean body weight change ([4]; male (M)): -0.8 g

COc1ccc2c(c1)c(CC(=O)O)c(C)n2C(=O)c1ccc(Cl)cc1 [Indomethacin, reference compound]
Plasma Fibrinogen [5]: 978 ± 100 mg/dL | Change in Body Weight ([5]; day 28 minus day 22): 25.6 ± 3.1 g | Change in Paw Volume ([5]; day 28 minus day 22, both hind paws): -1.22 ± 0.15 mL | Plasma fibrinogen % change (reduction) ([1]; oral 3 μMol/Kg): -30%

CCCCCCCCCOc1ccccc1/C=C/C(C)=C/C=C/C(C)=C/C(=O)O [drawing 5]
change in vivo at 76 µmol/kg ([1]; oral 76 μMol/Kg, read-out: % Reduction in Paw Volume, Left): -58% | change in vivo at 76 µmol/kg ([1]; oral 76 μMol/Kg, read-out: % Reduction in Paw Volume, Right): -43% | Plasma fibrinogen % change (reduction) ([1]; oral 76 μMol/Kg): -55% | Body Weight Gain ([1]; oral 76 μMol/Kg): +27 g

CC1=C(/C=C/C(C)=C/C=C/C(C)=C\C(=O)O)C(C)(C)CCC1 [reference compound]
change in vivo at 60 µmol/kg ([1]; oral 60 μMol/Kg, read-out: % Reduction in Paw Volume, Left): -49% | change in vivo at 60 µmol/kg ([1]; oral 60 μMol/Kg, read-out: % Reduction in Paw Volume, Right): -33% | Plasma fibrinogen % change (reduction) ([1]; oral 60 μMol/Kg): -18% | Body Weight Gain ([1]; oral 60 μMol/Kg): -7 g
